Our source for the IC50 values is patent publication US11406648B2, “C17-heteroaryl derivatives of oleanolic acid and methods of use thereof” (REATA PHARMACEUTICALS, INC., priority 2012, dated 2022).

This assay concerns RAW264.7 mouse macrophages. The assay can be described thus: Suppression of IFNγ-induced NO production (Nitric Oxide Production and Cell Viability Assay). Format: cell-based. The following applies: IFNγ-induced NO production, Griess reagent, normalized to cell viability, 2 h pre-treatment, IFNγ 24 h. As to the method: Assay results for the suppression of IFNγ-induced NO production are shown for several of the compounds of the present invention in Table 1 below. […] Details regarding this assay are provided in the Examples section below. Nitric Oxide Production and Cell Viability Assay. RAW264.7 mouse macrophages were plated in 96-well plates at 30,000 cells/well in triplicate in RPMI1640+0.5% FBS and incubated at 37° C. with 5% CO2. On the next day, cells were pre-treated with DMSO or drug (0-200 nM dose range) for 2 hours, and then treated with recombinant mouse IFNγ (R&D Systems) for 24 hours. Nitric Oxide concentration in media was determined using the Griess reagent system (Promega). Cell viability was determined using WST-1 reagent (Roche). IC50 values were determined based on the suppression of IFNγ induced Nitric Oxide production normalized to cell viability.
For orientation: Griess reagent forms a coloured azo dye with nitrite.
Usually IC50 stands for the midpoint of a concentration-inhibition curve. For `Cc1nnc([C@]23CCC(C)(C)C[C@H]2[C@H]2C(=O)C=C4[C@@]5(C)C=C(C#N)C(=O)C(C)(C)[C@@H]5CC[C@@]4(C)[C@]2(C)CC3)o1` [TX63384], the IC50 stood at 2 nM.

Consider `CC1(C)CC[C@]2(c3nnc(C4CC4)o3)CC[C@]3(C)[C@H](C(=O)C=C4[C@@]5(C)C=C(C#N)C(=O)C(C)(C)[C@@H]5CC[C@]43C)[C@@H]2C1` [TX63477], for which the IC50 was determined as 3.3 nM.

In the case of `CC(C)c1nnc([C@]23CCC(C)(C)C[C@H]2[C@H]2C(=O)C=C4[C@@]5(C)C=C(C#N)C(=O)C(C)(C)[C@@H]5CC[C@@]4(C)[C@]2(C)CC3)o1` [TX63476], the IC50 stood at 5.4 nM.

On to `CCCc1nnc([C@]23CCC(C)(C)C[C@H]2[C@H]2C(=O)C=C4[C@@]5(C)C=C(C#N)C(=O)C(C)(C)[C@@H]5CC[C@@]4(C)[C@]2(C)CC3)o1` [TX63475], for which the IC50 worked out at 5.7 nM.

On to `Cc1noc([C@]23CCC(C)(C)C[C@H]2[C@H]2C(=O)C=C4[C@@]5(C)C=C(C#N)C(=O)C(C)(C)[C@@H]5CC[C@@]4(C)[C@]2(C)CC3)n1` [TX63501], for which the IC50 worked out at 1 nM.

As for `COCc1nnc([C@]23CCC(C)(C)C[C@H]2[C@H]2C(=O)C=C4[C@@]5(C)C=C(C#N)C(=O)C(C)(C)[C@@H]5CC[C@@]4(C)[C@]2(C)CC3)o1` [TX63478], the IC50 stood at 1.8 nM.

Consider `CC1(C)CC[C@]2(c3nnco3)CC[C@]3(C)[C@H](C(=O)C=C4[C@@]5(C)C=C(C#N)C(=O)C(C)(C)[C@@H]5CC[C@]43C)[C@@H]2C1` [TX63479], for which the half-inhibitory concentration (IC50) worked out at 1.1 nM.

Consider `Cc1nnc(C[C@]23CCC(C)(C)C[C@H]2[C@H]2C(=O)C=C4[C@@]5(C)C=C(C#N)C(=O)C(C)(C)[C@@H]5CC[C@@]4(C)[C@]2(C)CC3)o1` [TX63593], for which the half-inhibitory concentration (IC50) worked out at 1.7 nM.
